# Source: paper PMC12296639, “Synthesis and Bioactivity Investigation of Novel 2-({2-[(Dialkylamino) Methyl] Quinazolin-4-one-3-yl} Methyl) Benzonitrile Derivatives as Dipeptidyl Peptidase-4 Inhibitory Agent” (Iranian Journal of Pharmaceutical Research : IJPR, 2025)
# Molecular target: T1, DPP-4 (Homo sapiens, UniProt P27487)
# T1 construct: purchased MAK203
# Assay: in vitro DPP-4 inhibitory activity assay (DPP-4 inhibitor screening kit MAK203)
# Type: biochemical
# Conditions: fluorescence assay kit, 37°C; IC50 from linear equation of inhibition % vs concentration
# Experimental: The in vitro DPP-4 inhibitory activity of the prepared compounds was evaluated using the DPP-4 inhibitor screening kit (MAK203) according to the test protocol with slight modifications ([17]). […] Substrate solutions (25 μL) were added to each well, covered, and incubated at 37°C for 30 minutes. […] The following formula was used to calculate the percent inhibition (Equation 1):
# Inhibition %= (initial activity-inhibitor activity)/initial activity×100 %
# The IC50 value was calculated from y = a + bx (linear equation) obtained from the relation of the inhibition activity (%) (y) and the concentration (x) of the substance being measured.
# T1 sequence (P27487 whole entry): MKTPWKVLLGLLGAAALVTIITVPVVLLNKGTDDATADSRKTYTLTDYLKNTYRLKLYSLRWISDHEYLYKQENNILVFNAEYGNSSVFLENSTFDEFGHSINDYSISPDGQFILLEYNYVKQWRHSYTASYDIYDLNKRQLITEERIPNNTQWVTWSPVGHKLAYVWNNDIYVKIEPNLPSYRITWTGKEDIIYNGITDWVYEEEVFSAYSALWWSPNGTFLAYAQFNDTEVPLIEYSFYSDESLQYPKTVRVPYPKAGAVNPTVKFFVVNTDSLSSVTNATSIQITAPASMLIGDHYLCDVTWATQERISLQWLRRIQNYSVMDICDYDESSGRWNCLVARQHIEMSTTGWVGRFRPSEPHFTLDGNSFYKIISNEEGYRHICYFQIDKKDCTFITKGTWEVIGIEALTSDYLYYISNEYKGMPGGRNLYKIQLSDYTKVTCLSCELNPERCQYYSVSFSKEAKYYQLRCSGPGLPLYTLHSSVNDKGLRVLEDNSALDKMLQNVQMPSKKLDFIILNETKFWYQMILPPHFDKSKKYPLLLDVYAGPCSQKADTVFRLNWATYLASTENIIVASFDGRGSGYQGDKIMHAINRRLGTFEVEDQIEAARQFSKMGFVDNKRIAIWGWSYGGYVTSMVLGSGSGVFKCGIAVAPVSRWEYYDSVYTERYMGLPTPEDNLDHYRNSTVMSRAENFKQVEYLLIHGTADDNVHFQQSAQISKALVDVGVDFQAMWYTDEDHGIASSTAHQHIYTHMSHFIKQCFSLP
row,IC50 [µM],Compound
1,4.92,"CN(C)Cc1nc2ccccc2c(=O)n1Cc1ccccc1C#N [5a, 2-({2-[Dimethylaminomethyl]quinazolin-4-one-3-yl}methyl)benzonitrile]"
2,5.29,"CCN(CC)Cc1nc2ccccc2c(=O)n1Cc1ccccc1C#N [5b, 2-({2-[Diethylaminomethyl]quinazolin-4-one-3-yl}methyl)benzonitrile]"
3,6.78,"CCCCN(CCCC)Cc1nc2ccccc2c(=O)n1Cc1ccccc1C#N [5c, 2-({2-[Dibutylaminomethyl]quinazolin-4-one-3-yl}methyl)benzonitrile]"
4,1.46,"N#Cc1ccccc1Cn1c(CN2CCOCC2)nc2ccccc2c1=O [5d, 2-({2-[Morpholinomethyl]quinazolin-4-one-3-yl}methyl)benzonitrile]"
5,3.07,"N#Cc1ccccc1Cn1c(CN2CCCC2)nc2ccccc2c1=O [5e, 2-({2-[Pyrrolidinomethyl]quinazolin-4-one-3-yl}methyl)benzonitrile]"
6,3.56,"CN1CCN(Cc2nc3ccccc3c(=O)n2Cc2ccccc2C#N)CC1 [5f, 2-({2-[N-methylpiperazinomethyl]quinazolin-4-one-3-yl}methyl)benzonitrile]"
